Assay results taken from ChEMBL document CHEMBL4138241, “Synthesis and in vitro evaluation of novel substituted isatin-propylene-1H-1,2,3-triazole-4-methylene-moxifloxacin hybrids for their anti-mycobacterial activities” (Eur J Med Chem, 2018).
Values after ≈ are worked out from the molar mass of the structure shown.

Key:
[1] = test system: Mycobacterium tuberculosis; experiment: Antimycobacterial activity against Mycobacterium tuberculosis H37Rv after 3 days by rapid direct susceptibility test; format: functional; details: 72 h
[2] = Selectivity index, ratio of CC50 against African green monkey Vero cells to MIC for Mycobacterium tuberculosis H37Rv; format: toxicity; details: read-out: Selectivity Index
[3] = Cytotoxicity against African green monkey Vero cells assessed as reduction in cell viability after 72 hrs by MTT assay; format: cell-based; details: chlorocebus sabaeus
[4] = test system: Mycobacterium tuberculosis; experiment: Potency index, ratio of moxifloxacin MIC to compound MIC for antimycobacterial activity against Mycobacterium tuberculosis H37Rv; format: functional
[5] = Half life in mouse microsomes; format: ADME, Microsome
[6] = Elimination half life in ICR mouse at 50 mg/kg, po by HPLC analysis; format: ADME, organism-based; details: in vivo, read-out: beta t1/2 (converted)
[7] = test system: Mycobacterium tuberculosis; experiment: Potency index, ratio of rifampicin MIC to compound MIC for antimycobacterial activity against Mycobacterium tuberculosis H37Rv; format: functional
[8] = Cmax in ICR mouse at 50 mg/kg, po by HPLC analysis; format: ADME, organism-based; set-up: dose 50 mg/kg, route oral; details: in vivo
[9] = Tmax in ICR mouse at 50 mg/kg, po by HPLC analysis; format: ADME, organism-based; details: in vivo
[10] = AUC (0 to infinity) in ICR mouse at 50 mg/kg, po by HPLC analysis; format: ADME, organism-based; set-up: dose 50 mg/kg, time infinity, route oral; details: in vivo

| SMILES | MIC [1] [µg/mL] | selectivity ratio [2] | CC50 at 72 h [3] [µg/mL] | Ratio [4] | half-life [5] [h] | half-life [6] [h] | Ratio [7] | Cmax [8] [ng/mL] | Tmax [9] [h] | AUC(0-inf) [10] [ng·h/mL] |
| --- | --- | --- | --- | --- | --- | --- | --- | --- | --- | --- |
| COc1c(N2C[C@H]3CCCN(Cc4cn(CCCN5C(=O)/C(=N/O)c6cc(C)ccc65)nn4)[C@H]3C2)c(F)cc2c(=O)c(C(=O)O)cn(C3CC3)c12 | 1.56 (≈ 2.23 µM) | 5.1 | 8 (≈ 11.4 µM) |  |  |  |  |  |  |  |
| COc1c(N2C[C@H]3CCCN(Cc4cn(CCCN5C(=O)C(=O)c6cc(C)ccc65)nn4)[C@H]3C2)c(F)cc2c(=O)c(C(=O)O)cn(C3CC3)c12 | 0.39 (≈ 0.57 µM) | 82 | 32 (≈ 46.8 µM) |  |  |  |  |  |  |  |
| CO/N=C1/C(=O)N(CCCn2cc(CN3CCC[C@@H]4CN(c5c(F)cc6c(=O)c(C(=O)O)cn(C7CC7)c6c5OC)C[C@@H]43)nn2)c2ccccc21 | 0.1 (≈ 0.143 µM) | 160 | 16 (≈ 22.9 µM) |  |  |  |  |  |  |  |
| CCO/N=C1/C(=O)N(CCCn2cc(CN3CCC[C@@H]4CN(c5c(F)cc6c(=O)c(C(=O)O)cn(C7CC7)c6c5OC)C[C@@H]43)nn2)c2ccccc21 | 0.39 (≈ 0.547 µM) | 41 | 16 (≈ 22.4 µM) |  |  |  |  |  |  |  |
| COc1c(N2C[C@H]3CCCN(Cc4cn(CCCN5C(=O)C(=O)c6ccccc65)nn4)[C@H]3C2)c(F)cc2c(=O)c(C(=O)O)cn(C3CC3)c12 | 1.56 (≈ 2.33 µM) | 10.2 | 16 (≈ 23.9 µM) |  |  |  |  |  |  |  |
| CO/N=C1/C(=O)N(CCCn2cc(CN3CCC[C@@H]4CN(c5c(F)cc6c(=O)c(C(=O)O)cn(C7CC7)c6c5OC)C[C@@H]43)nn2)c2ccc(F)cc21 | 0.05 (≈ 0.0698 µM) | 80 | 4 (≈ 5.58 µM) | 2 - 8 | 0.228 | 3.87 | 2 - 8 | 243 | 1.33 | 1240 |
| CCO/N=C1/C(=O)N(CCCn2cc(CN3CCC[C@@H]4CN(c5c(F)cc6c(=O)c(C(=O)O)cn(C7CC7)c6c5OC)C[C@@H]43)nn2)c2ccc(F)cc21 | 0.2 (≈ 0.274 µM) | 20 | 4 (≈ 5.47 µM) |  |  |  |  |  |  |  |
| COc1c(N2C[C@H]3CCCN(Cc4cn(CCCN5C(=O)C(=O)c6cc(F)ccc65)nn4)[C@H]3C2)c(F)cc2c(=O)c(C(=O)O)cn(C3CC3)c12 | 0.78 (≈ 1.13 µM) | 20.5 | 16 (≈ 23.3 µM) |  |  |  |  |  |  |  |
| COc1c(N2C[C@H]3CCCN(Cc4cn(CCCN5C(=O)/C(=N/O)c6ccccc65)nn4)[C@H]3C2)c(F)cc2c(=O)c(C(=O)O)cn(C3CC3)c12 | 0.78 (≈ 1.14 µM) | 10.2 | 8 (≈ 11.7 µM) |  |  |  |  |  |  |  |
| COc1c(N2C[C@H]3CCCN(Cc4cn(CCCN5C(=O)/C(=N/O)c6cc(F)ccc65)nn4)[C@H]3C2)c(F)cc2c(=O)c(C(=O)O)cn(C3CC3)c12 | 0.78 (≈ 1.11 µM) | 2.6 | 2 (≈ 2.85 µM) |  |  |  |  |  |  |  |
| CO/N=C1/C(=O)N(CCCn2cc(CN3CCC[C@@H]4CN(c5c(F)cc6c(=O)c(C(=O)O)cn(C7CC7)c6c5OC)C[C@@H]43)nn2)c2ccc(C)cc21 | 0.39 (≈ 0.547 µM) | 20.5 | 8 (≈ 11.2 µM) |  |  |  |  |  |  |  |
| CCO/N=C1/C(=O)N(CCCn2cc(CN3CCC[C@@H]4CN(c5c(F)cc6c(=O)c(C(=O)O)cn(C7CC7)c6c5OC)C[C@@H]43)nn2)c2ccc(C)cc21 | 0.39 (≈ 0.537 µM) | 10.2 | 4 (≈ 5.5 µM) |  |  |  |  |  |  |  |
| NNC(=O)c1ccncc1 [ISONIAZID] | 0.05 (≈ 0.365 µM) | 2560 | 128 (≈ 933 µM) |  |  |  |  |  |  |  |
| COc1c(N2C[C@@H]3CCCN[C@@H]3C2)c(F)cc2c(=O)c(C(=O)O)cn(C3CC3)c12 [MOXIFLOXACIN] | 0.1 (≈ 0.249 µM) |  | 128 (≈ 319 µM) |  |  |  |  | 2730 | 1.08 | 7030 |
| CO[C@H]1/C=C/O[C@@]2(C)Oc3c(C)c(O)c4c(O)c(c(/C=N/N5CCN(C)CC5)c(O)c4c3C2=O)NC(=O)/C(C)=C\C=C\[C@H](C)[C@H](O)[C@@H](C)[C@@H](O)[C@@H](C)[C@H](OC(C)=O)[C@@H]1C [RIFAMPIN] | 0.39 (≈ 0.474 µM) | 1310 | 512 (≈ 622 µM) |  |  |  |  |  |  |  |
